Assay results published in publication PMC10313921, “A living ex vivo platform for functional, personalized brain cancer diagnosis” (Cell Reports Medicine, 2023).
Read-outs that look alike come from different tables or passages of the source.

Legend:
[1] = test system: MB231Br (breast cancer metastasis to brain); experiment: Drug screening of MB231Br tumor foci on OBSCs; assay type: cell-based, human; conditions: for EC50 / EC90 / IC50: Homo sapiens; for EC50: dose required to kill 50% of the tumor; for EC90: dose required to kill 90% of the tumor; for IC50: MB231Br on OBSCs, dosed day 1, survival via bioluminescence day 4, linear interpolation; for Slope: slope through the EC50
[2] = test system: PGBM-R patient tumor tissue (recurrent tumor from same patient as PGBM); experiment: Drug screening of uncultured patient tumor tissue PGBM-R on OBSCs; assay type: cell-based, human; conditions: PGBM-R relative to PGBM
Protocol: (§1) Tumor cells were seeded onto OBSCs 2h after slicing as described above. One day after tumor seeding, six concentrations of each drug were diluted in the media underneath each culture insert, or XRad was applied using an X-Rad 320 Precision X-ray machine (n = 4 tumor foci per concentration; n ≥ 24 tumor foci per drug per cell line). Three days after treatment, the bioluminescence of live tumor cells was measured using an AMI optical imager (Spectral Instruments) and dose-response curves were generated. Tumor survival was normalized to day one tumor fluorescence and compared to an untreated control group.
(§2) To engraft onto OBSCs, the cryopreserved/thawed or fresh brain tumor tissue was filtered through a 100 μm cell strainer. Each 50 mg of tissue was transfected with 1mL mcherry-FLuc Lentivirus at 1.5e7 vg/ml with 1μL polybrene for 4h at 37°C. After incubation, the brain tumor tissue was washed with PBS three times to remove the residual virus and reconstituted in PBS with a final volume of 150 μL. Then the tissue solution was engrafted atop OBSCs at ∼0.5 mg tissue in 3 μL of PBS on each hemisphere of the slice. The OBSC engrafted with patient tumor tissue was incubated at 37°C with 5% CO2 and 95% humidity. The BSM was changed after 24h and subsequently every 3 days. Tumor treatment studies were executed as described above for tumor lines. The viability of the patient tissue was measured by an AMI optical imaging system with the addition of 1.5 mg/mL luciferin underneath the culture insert.
(§3) Several weighted parameters were factored into an overall drug sensitivity score.
(§4) For DSS parameters 1–6, therapeutic windows were calculated by comparing OBSC toxicity and tumor response at the doses where tumor kill passed through the DSS parameter (Table S1 and S3). For DSS parameter 7, the therapeutic window was calculated by comparing the slopes through the tumor EC50 and the OBSC tox EC50. For DSS parameter 8, the therapeutic window was calculated by comparing the areas under tumor kill and OBSC tox curves. Normalized therapeutic window ratios for DSS parameters 1–8 within each drug-tumor-OBSC interaction were calculated in the following manner: within each window, values ranged from +1 to −1, where values approaching +1 signify increasing tumor kill relative to normal tissue toxicity, and values approaching −1 indicate agents where tumors remained highly viable while toxicity to the normal OBSC tissue was elevated. DSS parameters 9–11 were determined based on the behavior of the tumor in response to the drug, as defined above.
(§5) All individually weighed parameters were added together to generate the DSS. Overall DSS from 0 to 100 signify increasing efficacy in tumor kill relative to OBSC toxicity, while scores from 0 to −100 describe scenarios in which tumors thrive more effectively than OBSCs for a given treatment. Dose-response values were calculated via linear interpolation of raw data, not from best-fit curve equations.

[3] = test system: U373WT (wild-type established GBM line); experiment: Drug screening of U373WT tumor foci on OBSCs; assay type: cell-based, human; conditions: U373 WT on OBSCs; for EC50 / EC90 / IC50: Homo sapiens, U373 MG; for EC50: dose required to kill 50% of the tumor; for EC90: dose required to kill 90% of the tumor; for IC50: dosed day 1, survival via bioluminescence day 4, linear interpolation; for AUC: area under the dose-response curve, trapezoidal rule; for EC10: dose required to kill 10% of the tumor; for EC25: dose required to kill 25% of the tumor; for Slope: slope through the EC50
Outline: (§6)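 Tumor foci (25,000 cells) were seeded onto organotypic brain slice cultures 2 h after slicing, two per slice; one day later six drug concentrations were added to the medium or X-ray was applied. Bioluminescence was read 3 days after treatment, normalized to day-one fluorescence and to untreated controls.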

[4] = test system: MS21 (low-passage patient-derived GBM line); experiment: Drug screening of MS21 tumor foci on OBSCs; assay type: cell-based, human; conditions: for EC50 / EC90 / IC50: Homo sapiens
Outline: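 Drug effects on tumor foci grown on brain slices are quantified by bioluminescence three days after treatment, relative to untreated foci and day-one fluorescence. Efficacy versus slice toxicity is combined into a weighted drug sensitivity score.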

[5] = test system: PGBM patient tumor tissue (pediatric GBM); experiment: Drug screening of uncultured patient tumor tissue PGBM on OBSCs; assay type: cell-based, human; conditions: Homo sapiens, PGBM on OBSCs
Protocol: as §1, §2, §3, §4, §5

[6] = test system: LN229 (established GBM line); experiment: Drug screening of LN229 tumor foci on OBSCs; assay type: cell-based, human; conditions: for EC50 / EC90 / IC50: Homo sapiens; for EC50: LN-229, dose required to kill 50% of the tumor; for EC90: LN-229, dose required to kill 90% of the tumor; for IC50: LN-229, dosed day 1, survival via bioluminescence day 4, linear interpolation; for AUC: area under the dose-response curve, trapezoidal rule; for EC10: dose required to kill 10% of the tumor; for EC25: dose required to kill 25% of the tumor; for Slope: slope through the EC50
Outline: as §6

[7] = test system: GBM8 (high-passage patient-derived GBM line); experiment: Drug screening of GBM8 tumor foci on OBSCs; assay type: cell-based, human; conditions: for AUC: area under the dose-response curve, trapezoidal rule; for EC10: dose required to kill 10% of the tumor; for EC25: dose required to kill 25% of the tumor; for EC75: dose required to kill 75% of the tumor; for Slope: slope through the EC50; for EC50 / EC90 / IC50: Homo sapiens
Outline: as §6

[8] = test system: PIS patient tumor tissue (intracranial sarcoma); experiment: Drug screening of uncultured patient tumor tissue PIS on OBSCs; assay type: cell-based, human; conditions: Homo sapiens; PIS on OBSCs; dose required to kill 90% of the tumor
Protocol: as §1, §2, §3, §4, §5

[9] = test system: U373KO (RAD18 knockout of U373WT via CRISPR); experiment: Drug screening of U373KO tumor foci on OBSCs; assay type: cell-based, human; conditions: U373 KO on OBSCs; for EC50 / EC90 / IC50: Homo sapiens, U373 MG; for EC50: dose required to kill 50% of the tumor; for EC90: dose required to kill 90% of the tumor; for IC50: dosed day 1, survival via bioluminescence day 4, linear interpolation; for AUC: area under the dose-response curve, trapezoidal rule; for EC10: dose required to kill 10% of the tumor; for EC25: dose required to kill 25% of the tumor; for Slope: slope through the EC50
Outline: as §6

[10] = test system: PDIPG (low-passage pediatric patient-derived line); experiment: Drug screening of PDIPG tumor foci on OBSCs; assay type: cell-based, human; conditions: for EC50 / EC90 / IC50: Homo sapiens; for AUC: area under the dose-response curve, trapezoidal rule; for EC25: dose required to kill 25% of the tumor; for Slope: slope through the EC50
Outline: as §6

[11] = test system: MG-II patient tumor tissue (WHO grade II meningioma); experiment: Drug screening of uncultured patient tumor tissue MG-II on OBSCs; assay type: cell-based; conditions: Homo sapiens, dose required to kill 90% of the tumor
Protocol: as §1, §2, §3, §4, §5

[12] = dose required to kill 75% of the tumor

## Nc1ncn([C@@H]2O[C@H](CO)[C@@H](O)[C@H]2O)c(=O)n1 [Azacitidine]
[1]; MB231BR on OBSCs
  EC50: 208 µM
  EC90: 906 µM
  Killing at highest dose: 9.50E-01 fraction of tumor population killed
  Slope: -1.20E-03
[1]
  IC50: 208 µM
[1]; MB231BR on OBSCs, area under the dose-response curve, trapezoidal rule
  AUC: 3.36E+02
[1]; MB231BR on OBSCs, dose required to kill 10% of the tumor
  EC10: 4.76 µM
[1]; MB231BR on OBSCs, dose required to kill 25% of the tumor
  EC25: 18.9 µM
[1]; MB231BR on OBSCs, dose required to kill 75% of the tumor
  EC75: 625 µM
[2]
  increase of DSS in the recurrent tumor: 96 points
[3]
  EC50: 800 µM
  EC90: > 10 µM
  IC50: 800 µM
  Killing at highest dose: 5.40E-01 fraction of tumor population killed
  AUC: 5.88E+02
  EC10: 61.1 µM
  EC25: 81.9 µM
  Slope: -2.00E-04
[4]
  EC50: 821 µM
  EC90: > 10 µM
  IC50: 821 µM
[4]; MS21 on OBSCs
  Killing at highest dose: 5.50E-01 fraction of tumor population killed
[4]; MS21 on OBSCs, area under the dose-response curve, trapezoidal rule
  AUC: 6.06E+02
[4]; MS21 on OBSCs, dose required to kill 10% of the tumor
  EC10: 31.5 µM
[4]; MS21 on OBSCs, dose required to kill 25% of the tumor
  EC25: 90.9 µM
[4]; MS21 on OBSCs, slope through the EC50
  Slope: -2.80E-04
[5]; dose required to kill 50% of the tumor
  EC50: > 100 µM
[5]; dose required to kill 90% of the tumor
  EC90: > 10 µM
[6]
  Killing at highest dose: 8.60E-01 fraction of tumor population killed
  EC50: 400 µM
  EC90: > 10 µM
  IC50: 400 µM
  AUC: 4.51E+02
  EC10: 28.9 µM
  EC25: 45.6 µM
  Slope: -6.00E-04
[6]; [12]
  EC75: 817 µM
[7]; GBM8 on OBSCs
  Killing at highest dose: 1.00E+00 fraction of tumor population killed
  AUC: 4.08E+01
  EC10: 8.33 µM
  EC25: 18.1 µM
  EC75: 49.4 µM
  Slope: -1.60E-02
[7]
  EC50: 33.8 µM
  EC90: 83.3 µM
  IC50: 34 µM
[8]
  EC90: > 10 µM
[9]
  EC50: 158 µM
  EC90: > 10 µM
  IC50: 158 µM
  Killing at highest dose: 8.30E-01 fraction of tumor population killed
  AUC: 3.39E+02
  EC10: 23.8 µM
  EC25: 44.5 µM
  Slope: -1.73E-03
[9]; [12]
  EC75: 647 µM
[10]
  EC50: 447 µM
  EC90: > 10 µM
  IC50: 447 µM
[10]; PDIPG on OBSCs
  Killing at highest dose: 6.40E-01 fraction of tumor population killed
  AUC: 5.03E+02
  EC25: 9.26 µM
  Slope: -2.53E-04
[10]; PDIPG on OBSCs, dose required to kill 10% of the tumor
  EC10: 3.7 µM

## Nc1ccn([C@@H]2O[C@H](CO)[C@@H](O)C2(F)F)c(=O)n1 [Gemcitabine]
[1]; MB231BR on OBSCs
  EC50: > 10 µM
  EC90: > 10 µM
  Killing at highest dose: -7.90E-01 fraction of tumor population killed
  Slope: 1.56E-02
[1]
  IC50: > 10 µM
[11]
  EC90: > 10 µM
[3]
  EC50: > 10 µM
  EC90: > 10 µM
  IC50: > 10 µM
  Killing at highest dose: 3.30E-01 fraction of tumor population killed
  AUC: 7.29E+01
  EC10: 0.385 µM
  EC25: 50 µM
  Slope: -1.60E-03
[4]
  EC90: > 10 µM
[4]; MS21 on OBSCs, dose required to kill 50% of the tumor, read-out: EC50
  EC50: > 10 µM
[4]; MS21 on OBSCs, dosed day 1, survival via bioluminescence day 4, linear interpolation, read-out: IC50
  IC50: > 10 µM
[4]; MS21 on OBSCs
  Killing at highest dose: -1.20E-01 fraction of tumor population killed
[6]
  Killing at highest dose: 2.80E-01 fraction of tumor population killed
  EC50: > 10 µM
  EC90: > 10 µM
  IC50: > 10 µM
  AUC: 7.06E+01
  EC10: 6.23 µM
  EC25: 8.4 µM
  Slope: -5.45E-03
[7]; GBM8 on OBSCs
  Killing at highest dose: 9.80E-01 fraction of tumor population killed
  AUC: 2.79E+00
  EC10: 0.0676 µM
  EC25: 0.169 µM
  EC75: 0.533 µM
  Slope: -1.48E+00
[7]
  EC90: 2 µM
[7]; GBM8 on OBSCs, dose required to kill 50% of the tumor, read-out: EC50
  EC50: 0.338 µM
[7]; GBM8 on OBSCs, dosed day 1, survival via bioluminescence day 4, linear interpolation, read-out: IC50
  IC50: 0.34 µM
[8]
  EC90: > 10 µM
[9]
  EC50: 0.868 µM
  EC90: > 10 µM
  IC50: 0.9 µM
  Killing at highest dose: 6.20E-01 fraction of tumor population killed
  AUC: 3.67E+01
  EC10: 0.139 µM
  EC25: 0.347 µM
  Slope: -3.80E-01
[10]
  EC90: > 10 µM
[10]; PDIPG on OBSCs, dose required to kill 50% of the tumor, read-out: EC50
  EC50: > 10 µM
[10]; PDIPG on OBSCs, dosed day 1, survival via bioluminescence day 4, linear interpolation, read-out: IC50
  IC50: > 10 µM
[10]; PDIPG on OBSCs
  Killing at highest dose: 4.80E-01 fraction of tumor population killed
  AUC: 5.72E+01
  EC25: 0.284 µM
  Slope: -3.03E-04
